Like-named read-outs stand apart in the source and are kept apart here.
Columns and labels:
human CB2 receptors = target: T1, human CB2 receptors (Homo sapiens, UniProt P34972); experiment: human CB2 radioligand binding assay ([3H]CP 55,940 competition); conditions: HEK293 membranes, 0.5 nM [3H]CP 55,940
T1 construct: expressed in transfected cells; host or cells: HEK293
Procedure: (§1) The CB1 and CB2 radioligand binding assays described herein are utilized to ascertain the affinity of compounds of the present application for binding to CB2 relative to CB1 receptors.
HEK293 cells stably expressing human CB2 receptors were grown until a confluent monolayer was formed. Briefly, the cells were harvested and homogenized in TE buffer (50 mM Tris-HCl, 1 mM MgCl2, and 1 mM EDTA) using a polytron for 2×10 second bursts in the presence of protease inhibitors, followed by centrifugation at 45,000×g for 20 minutes. The final membrane pellet was re-homogenized in storage buffer (50 mM Tris-HCl, 1 mM MgCl2, and 1 mM EDTA and 10% sucrose) and frozen at −78° C. until used. Saturation binding reactions were initiated by the addition of membrane preparation (protein concentration of 5 μg/well for human CB2) into wells of a deep well plate containing [^3H]CP 55,940 (120 Ci/mmol, a nonselective CB agonist commercially available from Tocris) in assay buffer (50 mM Tris, 2.5 mM EDTA, 5 mM MgCl2, and 0.5 mg/mL fatty acid free BSA, pH 7.4). After 90 min incubation at 30° C., binding reaction was terminated by the addition of 300 μL/well of cold assay buffer followed by rapid vacuum filtration through a UniFilter-96 GF/C filter plates (pre-soaked in 1 mg/mL BSA for 2 hours). The bound activity was counted in a TopCount using Microscint-20. Saturation experiments were conducted with twelve concentrations of [^3H]CP 55,940 ranging from 0.01 to 8 nM. Competition experiments were conducted with 0.5 nM [^3H]CP 55,940 and five concentrations (0.01 nM to 10 μM) of displacing ligands. The addition of 10 μM unlabeled CP 55,940 (Tocris, Ellisville, Mo.) was used to assess nonspecific binding.

rat CB2 = target: T2, rat CB2 (Rattus norvegicus, UniProt Q9QZN9); experiment: rat CB2 radioligand binding assay ([3H]CP 55,940 competition); set-up: expressed in transfected cells; host or cells: HEK293; conditions: HEK293 membranes, 0.5 nM [3H]CP 55,940
T2 sequence (Q9QZN9 1-360): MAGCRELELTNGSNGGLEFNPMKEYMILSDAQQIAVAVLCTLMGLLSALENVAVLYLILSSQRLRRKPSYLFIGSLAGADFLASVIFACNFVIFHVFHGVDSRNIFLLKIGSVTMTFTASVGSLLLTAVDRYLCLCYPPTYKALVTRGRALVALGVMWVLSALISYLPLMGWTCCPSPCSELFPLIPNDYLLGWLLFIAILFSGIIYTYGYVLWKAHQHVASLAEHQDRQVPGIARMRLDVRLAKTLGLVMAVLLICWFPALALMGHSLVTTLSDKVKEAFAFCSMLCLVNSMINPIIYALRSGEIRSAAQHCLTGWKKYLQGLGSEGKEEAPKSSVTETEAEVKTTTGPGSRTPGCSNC
Procedure: as §1
HEK293 cells stably expressing rat CB2 receptors were grown until a confluent monolayer was formed. Briefly, the cells were harvested and homogenized in TE buffer (50 mM Tris-HCl, 1 mM MgCl2, and 1 mM EDTA) using a polytron for 2×10 second bursts in the presence of protease inhibitors, followed by centrifugation at 45,000×g for 20 minutes. The final membrane pellet was re-homogenized in storage buffer (50 mM Tris-HCl, 1 mM MgCl2, and 1 mM EDTA and 10% sucrose) and frozen at −78° C. until used. Saturation binding reactions were initiated by the addition of membrane preparation (protein concentration of 20 μg/well for rat CB2) into wells of a deep well plate containing [^3H]CP 55,940 (120 Ci/mmol, a nonselective CB agonist commercially available from Tocris) in assay buffer (50 mM Tris, 2.5 mM EDTA, 5 mM MgCl2, and 0.5 mg/mL fatty acid free BSA, pH 7.4). After 45 min incubation at 30° C., binding reaction was terminated by the addition of […] of cold assay buffer followed by rapid vacuum filtration through a UniFilter-96 GF/C filter plates (pre-soaked in 1 mg/mL BSA for 2 hours). The bound activity was counted in a TopCount using Microscint-20. Saturation experiments were conducted with twelve concentrations of [^3H]CP 55,940 ranging from 0.01 to 8 nM. Competition experiments were conducted with 0.5 nM [^3H]CP 55,940 and five concentrations of displacing ligands selected from the range of 0.01 nM to 10 μM. The addition of 10 μM unlabeled CP 55,940 (Tocris, Ellisville, Mo.) was used to assess nonspecific binding.

T1 sequence (P34972 whole entry): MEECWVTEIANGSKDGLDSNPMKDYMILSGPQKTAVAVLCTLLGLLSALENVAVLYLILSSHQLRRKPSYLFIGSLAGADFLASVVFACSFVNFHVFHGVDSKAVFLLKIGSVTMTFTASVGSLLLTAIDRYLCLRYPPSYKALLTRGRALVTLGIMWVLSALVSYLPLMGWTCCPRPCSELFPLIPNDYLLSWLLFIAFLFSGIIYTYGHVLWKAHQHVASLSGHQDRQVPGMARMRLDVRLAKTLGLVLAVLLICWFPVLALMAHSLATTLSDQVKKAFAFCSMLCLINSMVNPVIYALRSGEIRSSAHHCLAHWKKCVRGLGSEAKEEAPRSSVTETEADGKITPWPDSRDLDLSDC

Row | Structure (SMILES) | Ki (human CB2 receptors; human CB2 (Ki, nM)) [nM] | Ki (rat CB2; rat CB2 (Ki, nM)) [nM] | Ki (human CB2 receptors; read-out: human CB2 (Ki)) [nM] | Ki (rat CB2; read-out: rat CB2 (Ki)) [nM]
1 | CSCCCCOc1ccc(C(F)(F)F)cc1C(=O)/N=c1\cc(C(C)(C)C)n(C)n1C[C@H]1CCCO1 [Example 82, N-{(3E)-5-tert-butyl-1-methyl-2-[(2R)-tetrahydrofuran-2-ylmethyl]-1,2-dihydro-3 H-pyrazol-3-ylidene}-2-[4-(methylthio)butoxy]-5-(trifluoromethyl)benzamide] | 5.4 | 2.6 | – | –
2 | Cn1c(C(C)(C)C)c/c(=N\C(=O)c2cc(C(F)(F)F)ccc2OCCCCS(C)(=O)=O)n1C[C@H]1CCCO1 [Example 83, N-{(3E)-5-tert-butyl-1-methyl-2-[(2R)-tetrahydrofuran-2-ylmethyl]-1,2-dihydro-3 H-pyrazol-3-ylidene}-2-[4-(methylsulfonyl)butoxy]-5-(trifluoromethyl)benzamide] | > 1000 | 305 | – | –
3 | CCCCn1nc(C(C)(C)C)s/c1=N\C(=O)c1cc(C(F)(F)F)ccc1OCC(C)(C)O [Example 84, N-[(2Z)-3-butyl-5-tert-butyl-1,3,4-thiadiazol-2(3H)-ylidene]-2-(2-hydroxy-2-methylpropoxy)-5-(trifluoromethyl)benzamide] | 1.8 | 1.5 | – | –
4 | CC(C)(C)c1nn(CCCC#N)/c(=N/C(=O)c2cc(C(F)(F)F)ccc2OCCCC#N)s1 [Example 85, N-[(2Z)-5-tert-butyl-3-(3-cyanopropyl)-1,3,4-thiadiazol-2(3H)-ylidene]-2-(3-cyanopropoxy)-5-(trifluoromethyl)benzamide] | 20 | 2.5 | – | –
5 | CCCCn1ccc(C(C)(C)C)c/c1=N\C(=O)c1cc(C(F)(F)F)ccc1OCC(C)(C)O [Example 92, N-[(2E)-1-butyl-4-tert-butylpyridin-2(1H)-ylidene]-2-(2-hydroxy-2-methylpropoxy)-5-(trifluoromethyl)benzamide] | 73 | 47 | – | –
6 | CCCCn1cc(C(C)(C)C)o/c1=N\C(=O)c1cc(C(F)(F)F)ccc1OCC(C)(C)O [Example 93, N-[(2Z)-3-butyl-5-tert-butyl-1,3-oxazol-2(3H)-ylidene]-2-(2-hydroxy-2-methylpropoxy)-5-(trifluoromethyl)benzamide] | 3.6 | 3.9 | – | –
7 | CCCCN1CC(C)(C)S/C1=N\C(=O)c1cc(C(F)(F)F)ccc1OCC(C)(C)O [Example 94, N-[(2Z)-3-butyl-5,5-dimethyl-1,3-thiazolidin-2-ylidene]-2-(2-hydroxy-2-methylpropoxy)-5-(trifluoromethyl)benzamide] | 3.9 | 5 | – | –
8 | Cn1c(C(C)(C)C)c/c(=N\C(=O)c2cc(C(F)(F)F)ccc2OCC(C)(C)O)n1CC1CCOCC1 [Example 95, N-[(3E)-5-tert-butyl-1-methyl-2-(tetrahydro-2H-pyran-4-ylmethyl)-1,2-dihydro-3 H-pyrazol-3-ylidene]-2-(2-hydroxy-2-methylpropoxy)-5-(trifluoromethyl)benzamide] | – | – | > 1000 | 331
9 | CC(C)(O)COc1ccc(C(F)(F)F)cc1C(=O)/N=c1\sc(C(C)(C)C)nn1CC1CCO1 (stereo not drawn) [Example 96, N-[(2Z)-5-tert-butyl-3-(oxetan-2-ylmethyl)-1,3,4-thiadiazol-2(3H)-ylidene]-2-(2-hydroxy-2-methylpropoxy)-5-(trifluoromethyl)benzamide] | 9.4 | 6.1 | – | –
10 | CC(C)(O)COc1ccc(C(F)(F)F)cc1C(=O)/N=c1\sc(C(C)(C)C)nn1CC1(C)COC1 [Example 97, N-[(2Z)-5-tert-butyl-3-[(3-methyloxetan-3-yl)methyl]-1,3,4-thiadiazol-2(3 H)-ylidene]-2-(2-hydroxy-2-methylpropoxy)-5-(trifluoromethyl)benzamide] | 31.6 | 13 | – | –
11 | C[C@H](O)COc1ccc(C(F)(F)F)cc1C(=O)/N=c1\cc(C(C)(C)C)n(C)n1C[C@H]1CCCO1 [Example 98, N-{(3E)-5-tert-butyl-1-methyl-2-[(2R)-tetrahydrofuran-2-ylmethyl]-1,2-dihydro-3 H-pyrazol-3-ylidene}-2-{[(2S)-2-hydroxypropyl]oxy}-5-(trifluoromethyl)benzamide] | 4.6 | 6.6 | – | –
12 | CCCCn1oc(C(C)(C)C)c/c1=N\C(=O)c1cc(C(F)(F)F)ccc1OCC(C)(C)O [Example 100, N-[(3E)-2-butyl-5-tert-butylisoxazol-3(2H)-ylidene]-2-(2-hydroxy-2-methylpropoxy)-5-(trifluoromethyl)benzamide] | 1.7 | 1.3 | – | –
13 | C=CC(O)COc1ccc(C(F)(F)F)cc1C(=O)/N=c1\cc(C(C)(C)C)n(C)n1C[C@H]1CCCO1 (stereo partly drawn) [Example 101, N-{(3E)-5-tert-butyl-1-methyl-2-[(2R)-tetrahydrofuran-2-ylmethyl]-1,2-dihydro-3 H-pyrazol-3-ylidene}-2-[(2-hydroxybut-3-enyl)oxy]-5-(trifluoromethyl)benzamide] | 1 | 2.8 | – | –
14 | C[C@H](O)[C@H](C)Oc1ccc(C(F)(F)F)cc1C(=O)/N=c1\cc(C(C)(C)C)n(C)n1C[C@H]1CCCO1 [Example 103, N-{(3E)-5-tert-butyl-1-methyl-2-[(2R)-tetrahydrofuran-2-ylmethyl]-1,2-dihydro-3 H-pyrazol-3-ylidene}-2-{[(1S,2S)-2-hydroxy-1-methylpropyl]oxy}-5-(trifluoromethyl)benzamide] | 3.8 | 1.7 | – | –
15 | C[C@@H](O)[C@@H](C)Oc1ccc(C(F)(F)F)cc1C(=O)/N=c1\cc(C(C)(C)C)n(C)n1C[C@H]1CCCO1 [Example 104, N-{(3E)-5-tert-butyl-1-methyl-2-[(2R)-tetrahydrofuran-2-ylmethyl]-1,2-dihydro-3 H-pyrazol-3-ylidene}-2-{[(1R,2R)-2-hydroxy-1-methylpropyl]oxy}-5-(trifluoromethyl)benzamide] | – | – | > 1000 | 317
16 | Cn1c(C(C)(C)C)c/c(=N\C(=O)c2cc(C(F)(F)F)ccc2OC[C@@H](O)CNC(C)(C)C)n1C[C@H]1CCCO1 [Example 105, 2-{[(2S)-3-(tert-butylamino)-2-hydroxypropyl]oxy}-N-{(3E)-5-tert-butyl-1-methyl-2-[(2R)-tetrahydrofuran-2-ylmethyl]-1,2-dihydro-3H-pyrazol-3-ylidene}-5-(trifluoromethyl)benzamide] | – | – | > 1000 | 406
17 | Cn1c(C(C)(C)C)c/c(=N\C(=O)c2cc(C(F)(F)F)ccc2OCC(C)(C)O)n1CC1CCCC1 [Example 106, N-[(3E)-5-tert-butyl-2-(cyclopentylmethyl)-1-methyl-1,2-dihydro-3H-pyrazol-3-ylidene]-2-(2-hydroxy-2-methylpropoxy)-5-(trifluoromethyl)benzamide] | 6.6 | 8.7 | – | –
18 | C=C[C@H](O)COc1ccc(C(F)(F)F)cc1C(=O)/N=c1\cc(C(C)(C)C)n(C)n1C[C@H]1CCCO1 [Example 107, N-{(3E)-5-tert-butyl-1-methyl-2-[(2R)-tetrahydrofuran-2-ylmethyl]-1,2-dihydro-3 H-pyrazol-3-ylidene}-2-{[(2S)-2-hydroxybut-3-enyl]oxy}-5-(trifluoromethyl)benzamide] | 2.4 | 2.9 | – | –
